In ChEMBL document CHEMBL4507266, “Data for DCP probe BAY-784” (2021):

Assays:
Conditions in all cases: Compound concentration 10.0 uM
[1] = biological target: D(2) dopamine receptor (Homo sapiens) (UniProt P14416)
[2] = biological target: Histamine H1 receptor (Homo sapiens) (UniProt P35367)
[3] = biological target: 5-hydroxytryptamine receptor 1A (Homo sapiens) (UniProt P08908)
[4] = biological target: 3-hydroxy-3-methylglutaryl-coenzyme A reductase (Homo sapiens) (UniProt P04035); assay: Inhibition of HMG-CoA Reductase at compound concentration of 10.0 uM in the Eurofins-Panlabs enzyme assay (Eurofins_assay_124010); set-up: substrate with concentration
Chain of 3-hydroxy-3-methylglutaryl-coenzyme A reductase (Homo sapiens) (P04035 whole entry): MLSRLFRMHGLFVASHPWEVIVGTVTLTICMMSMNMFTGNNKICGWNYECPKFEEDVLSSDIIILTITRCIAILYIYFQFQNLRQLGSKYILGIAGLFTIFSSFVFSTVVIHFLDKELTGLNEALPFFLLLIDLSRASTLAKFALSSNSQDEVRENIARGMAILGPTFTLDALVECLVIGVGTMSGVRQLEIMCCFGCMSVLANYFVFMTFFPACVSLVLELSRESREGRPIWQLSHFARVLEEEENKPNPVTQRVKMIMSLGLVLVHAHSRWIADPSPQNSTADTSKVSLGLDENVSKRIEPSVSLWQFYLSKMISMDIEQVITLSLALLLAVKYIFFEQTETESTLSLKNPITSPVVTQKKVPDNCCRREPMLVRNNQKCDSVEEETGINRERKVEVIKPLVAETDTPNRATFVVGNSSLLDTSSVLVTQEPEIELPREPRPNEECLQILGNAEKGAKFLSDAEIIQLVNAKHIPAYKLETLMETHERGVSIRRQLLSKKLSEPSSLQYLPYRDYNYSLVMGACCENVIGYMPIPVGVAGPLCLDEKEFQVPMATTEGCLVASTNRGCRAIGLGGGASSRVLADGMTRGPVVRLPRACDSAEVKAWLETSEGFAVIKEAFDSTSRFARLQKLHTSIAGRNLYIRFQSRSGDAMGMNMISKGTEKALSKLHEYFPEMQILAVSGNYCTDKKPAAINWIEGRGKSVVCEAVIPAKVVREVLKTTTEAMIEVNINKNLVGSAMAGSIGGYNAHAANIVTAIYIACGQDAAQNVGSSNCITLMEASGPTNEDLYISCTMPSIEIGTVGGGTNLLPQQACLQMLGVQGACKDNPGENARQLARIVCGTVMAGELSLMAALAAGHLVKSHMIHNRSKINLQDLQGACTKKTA

[5] = biological target: T1, Alpha-2B adrenergic receptor (Homo sapiens) (UniProt P18089)
T1 sequence (whole entry): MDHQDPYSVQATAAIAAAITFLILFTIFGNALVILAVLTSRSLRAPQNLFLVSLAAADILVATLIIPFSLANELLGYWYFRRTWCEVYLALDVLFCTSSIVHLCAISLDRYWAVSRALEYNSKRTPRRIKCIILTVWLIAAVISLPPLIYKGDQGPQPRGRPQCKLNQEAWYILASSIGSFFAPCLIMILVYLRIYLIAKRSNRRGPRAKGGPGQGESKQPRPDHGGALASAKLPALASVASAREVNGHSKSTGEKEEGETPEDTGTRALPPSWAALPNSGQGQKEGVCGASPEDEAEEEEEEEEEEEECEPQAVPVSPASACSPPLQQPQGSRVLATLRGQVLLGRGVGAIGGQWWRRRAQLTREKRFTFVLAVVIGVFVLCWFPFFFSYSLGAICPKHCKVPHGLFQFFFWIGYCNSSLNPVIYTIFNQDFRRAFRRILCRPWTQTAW

[6] = biological target: Muscarinic acetylcholine receptor M4 (Homo sapiens) (UniProt P08173)
Homo sapiens = organism: Homo sapiens; assay: Inhibition of Tumor Necrosis Factor (TNF), Non-Selective at 10 µM in the Eurofins-Panlabs radioligand binding assay (Eurofins_assay_286510)
[7] = biological target: Prostaglandin G/H synthase 2 (Homo sapiens) (UniProt P35354); assay: Inhibition of Cyclooxygenase COX-2 at compound concentration of 10.0 uM in the Eurofins-Panlabs enzyme assay (Eurofins_assay_118010); set-up: substrate with concentration 0.3 uM Arachidonic acid, incubation time 15 min, incubation temperature 37 C
Chain of Prostaglandin G/H synthase 2 (Homo sapiens) (P35354 whole entry): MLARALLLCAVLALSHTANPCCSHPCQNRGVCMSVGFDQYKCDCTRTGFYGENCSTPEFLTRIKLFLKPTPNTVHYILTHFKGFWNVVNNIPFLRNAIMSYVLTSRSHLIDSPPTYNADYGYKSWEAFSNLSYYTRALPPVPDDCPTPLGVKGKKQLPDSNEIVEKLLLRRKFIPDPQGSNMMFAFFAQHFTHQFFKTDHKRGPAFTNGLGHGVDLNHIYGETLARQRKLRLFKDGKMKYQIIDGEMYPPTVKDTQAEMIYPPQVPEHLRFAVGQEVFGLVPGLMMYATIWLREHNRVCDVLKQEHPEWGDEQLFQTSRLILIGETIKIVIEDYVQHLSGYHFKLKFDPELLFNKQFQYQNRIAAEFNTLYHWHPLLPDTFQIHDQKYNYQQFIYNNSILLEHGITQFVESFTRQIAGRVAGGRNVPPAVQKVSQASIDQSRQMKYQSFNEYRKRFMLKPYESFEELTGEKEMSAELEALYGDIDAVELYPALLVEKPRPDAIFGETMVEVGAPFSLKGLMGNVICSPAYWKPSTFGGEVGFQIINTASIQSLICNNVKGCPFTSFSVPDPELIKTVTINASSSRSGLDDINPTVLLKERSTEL

[8] = biological target: T2, GABA-A receptor; anion channel (Rattus norvegicus) (UniProt O09028+P15431+P18506+P18508+P19969+P20236+P23574+P23576+P28471+P28473+P30191+P62813+P63079+P63138+Q91ZM7+Q9ES14)
[9] = biological target: Epidermal growth factor receptor (Homo sapiens) (UniProt P00533); assay: Protein Tyrosine Kinase, EGF Receptor Eurofins-Panlabs enzyme assay; set-up: substrate with concentration
[10] = biological target: Platelet-activating factor receptor (Homo sapiens) (UniProt P25105); assay: Inhibition of Platelet Activating Factor (PAF) at 10 µM in the Eurofins-Panlabs radioligand binding assay (Eurofins_assay_265010)
Chain of Platelet-activating factor receptor (Homo sapiens) (P25105 whole entry): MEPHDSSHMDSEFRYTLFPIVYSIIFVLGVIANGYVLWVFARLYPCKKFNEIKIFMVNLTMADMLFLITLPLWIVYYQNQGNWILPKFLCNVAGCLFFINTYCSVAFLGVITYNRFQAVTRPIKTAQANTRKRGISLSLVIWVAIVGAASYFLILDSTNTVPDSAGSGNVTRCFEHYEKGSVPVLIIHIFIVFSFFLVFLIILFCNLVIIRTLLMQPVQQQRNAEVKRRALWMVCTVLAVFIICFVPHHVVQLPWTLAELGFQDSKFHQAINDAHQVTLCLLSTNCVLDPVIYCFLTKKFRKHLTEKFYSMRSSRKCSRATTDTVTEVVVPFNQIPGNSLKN

[11] = biological target: Receptor tyrosine-protein kinase erbB-2 (Homo sapiens) (UniProt P04626); assay: Inhibition of Protein Tyrosine Kinase, ERBB2 (HER2) at 10 µM in the Eurofins-Panlabs enzyme assay (Eurofins_assay_174020); set-up: substrate with concentration
Chain of Receptor tyrosine-protein kinase erbB-2 (Homo sapiens) (P04626 whole entry): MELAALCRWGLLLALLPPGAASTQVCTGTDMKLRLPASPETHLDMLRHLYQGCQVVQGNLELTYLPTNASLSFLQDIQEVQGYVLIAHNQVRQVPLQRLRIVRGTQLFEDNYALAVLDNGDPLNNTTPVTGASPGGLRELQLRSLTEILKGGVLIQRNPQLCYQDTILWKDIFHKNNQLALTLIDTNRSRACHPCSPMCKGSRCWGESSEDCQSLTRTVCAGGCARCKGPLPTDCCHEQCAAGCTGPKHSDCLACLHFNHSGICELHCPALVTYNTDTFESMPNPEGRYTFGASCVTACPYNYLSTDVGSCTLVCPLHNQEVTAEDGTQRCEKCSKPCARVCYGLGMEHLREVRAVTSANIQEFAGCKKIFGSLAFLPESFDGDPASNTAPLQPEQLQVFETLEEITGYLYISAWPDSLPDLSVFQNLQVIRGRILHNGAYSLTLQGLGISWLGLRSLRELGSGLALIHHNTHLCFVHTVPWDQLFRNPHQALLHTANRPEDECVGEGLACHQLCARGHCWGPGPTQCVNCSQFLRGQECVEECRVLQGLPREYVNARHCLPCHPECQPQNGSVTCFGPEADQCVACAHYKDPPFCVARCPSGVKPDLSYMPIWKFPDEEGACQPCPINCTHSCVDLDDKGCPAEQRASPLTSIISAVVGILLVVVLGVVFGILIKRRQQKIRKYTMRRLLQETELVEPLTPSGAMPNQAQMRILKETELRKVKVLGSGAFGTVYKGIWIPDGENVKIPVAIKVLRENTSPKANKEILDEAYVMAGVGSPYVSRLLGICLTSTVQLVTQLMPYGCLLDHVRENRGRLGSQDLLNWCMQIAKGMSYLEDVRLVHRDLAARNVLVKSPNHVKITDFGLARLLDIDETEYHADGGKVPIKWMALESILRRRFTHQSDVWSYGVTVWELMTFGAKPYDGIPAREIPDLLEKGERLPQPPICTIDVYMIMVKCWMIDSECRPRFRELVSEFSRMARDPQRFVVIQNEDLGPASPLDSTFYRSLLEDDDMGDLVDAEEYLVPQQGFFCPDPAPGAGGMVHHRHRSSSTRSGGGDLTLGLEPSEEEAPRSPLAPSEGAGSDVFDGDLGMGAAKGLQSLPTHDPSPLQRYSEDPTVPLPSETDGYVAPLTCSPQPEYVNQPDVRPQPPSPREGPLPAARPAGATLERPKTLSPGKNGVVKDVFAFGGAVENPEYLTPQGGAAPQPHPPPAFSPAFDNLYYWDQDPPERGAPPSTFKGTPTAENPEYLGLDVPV

[12] = biological target: Sigma non-opioid intracellular receptor 1 (Homo sapiens) (UniProt Q99720); assay: Sigma 1 Eurofins-Panlabs radioligand binding assay; set-up: ligand concentration 8 nM
Chain of Sigma non-opioid intracellular receptor 1 (Homo sapiens) (Q99720 whole entry): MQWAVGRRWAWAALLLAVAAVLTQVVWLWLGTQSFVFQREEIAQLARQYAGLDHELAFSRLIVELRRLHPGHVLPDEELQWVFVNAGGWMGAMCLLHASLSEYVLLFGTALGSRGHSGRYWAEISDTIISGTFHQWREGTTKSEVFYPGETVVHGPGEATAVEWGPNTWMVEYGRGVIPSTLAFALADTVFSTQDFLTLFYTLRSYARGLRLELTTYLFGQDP

[13] = biological target: Delta-type opioid receptor (Homo sapiens) (UniProt P41143)
[14] = biological target: Histamine H2 receptor (Homo sapiens) (UniProt P25021)
Chain of Histamine H2 receptor (Homo sapiens) (P25021 whole entry): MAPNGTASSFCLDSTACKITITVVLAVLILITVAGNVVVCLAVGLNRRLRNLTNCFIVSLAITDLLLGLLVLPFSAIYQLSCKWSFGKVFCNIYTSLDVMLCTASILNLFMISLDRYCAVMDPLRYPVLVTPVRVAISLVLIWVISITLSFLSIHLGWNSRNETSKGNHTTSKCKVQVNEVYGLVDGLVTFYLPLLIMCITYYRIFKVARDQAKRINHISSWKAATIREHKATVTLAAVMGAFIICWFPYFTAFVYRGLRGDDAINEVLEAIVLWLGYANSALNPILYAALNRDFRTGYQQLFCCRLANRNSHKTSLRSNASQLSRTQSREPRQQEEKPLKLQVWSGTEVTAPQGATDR

[15] = biological target: 5-hydroxytryptamine receptor 6 (Homo sapiens) (UniProt P50406); assay: Inhibition of Serotonin (5-Hydroxytryptamine) 5-HT6 at 10 µM in the Eurofins-Panlabs radioligand binding assay (Eurofins_assay_272200)
Chain of 5-hydroxytryptamine receptor 6 (Homo sapiens) (P50406 whole entry): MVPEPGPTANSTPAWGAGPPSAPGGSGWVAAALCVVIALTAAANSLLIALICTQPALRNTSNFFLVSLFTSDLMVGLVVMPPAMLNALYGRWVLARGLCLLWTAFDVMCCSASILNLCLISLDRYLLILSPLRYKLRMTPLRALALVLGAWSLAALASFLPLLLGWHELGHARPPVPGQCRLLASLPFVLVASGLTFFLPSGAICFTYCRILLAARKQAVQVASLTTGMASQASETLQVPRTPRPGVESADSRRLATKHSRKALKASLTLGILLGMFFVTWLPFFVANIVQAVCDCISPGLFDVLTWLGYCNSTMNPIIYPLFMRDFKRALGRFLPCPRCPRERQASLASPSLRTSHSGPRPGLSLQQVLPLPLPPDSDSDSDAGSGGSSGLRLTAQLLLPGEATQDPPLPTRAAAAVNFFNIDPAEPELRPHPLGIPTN

[16] = biological target: Melanocortin receptor 4 (Homo sapiens) (UniProt P32245); assay: Inhibition of Melanocortin MC4 at 10 µM in the Eurofins-Panlabs radioligand binding assay (Eurofins_assay_251350); set-up: ligand concentration 0.02 nM
[17] = biological target: T2, GABA-A receptor; anion channel (Rattus norvegicus); remark: listed apart in the source
[18] = biological target: T3, Alpha-1D adrenergic receptor (Homo sapiens) (UniProt P25100); assay: Inhibition of Adrenergic alpha1D at 10 µM in the Eurofins-Panlabs radioligand binding assay (Eurofins_assay_203400)
T3 sequence (whole entry): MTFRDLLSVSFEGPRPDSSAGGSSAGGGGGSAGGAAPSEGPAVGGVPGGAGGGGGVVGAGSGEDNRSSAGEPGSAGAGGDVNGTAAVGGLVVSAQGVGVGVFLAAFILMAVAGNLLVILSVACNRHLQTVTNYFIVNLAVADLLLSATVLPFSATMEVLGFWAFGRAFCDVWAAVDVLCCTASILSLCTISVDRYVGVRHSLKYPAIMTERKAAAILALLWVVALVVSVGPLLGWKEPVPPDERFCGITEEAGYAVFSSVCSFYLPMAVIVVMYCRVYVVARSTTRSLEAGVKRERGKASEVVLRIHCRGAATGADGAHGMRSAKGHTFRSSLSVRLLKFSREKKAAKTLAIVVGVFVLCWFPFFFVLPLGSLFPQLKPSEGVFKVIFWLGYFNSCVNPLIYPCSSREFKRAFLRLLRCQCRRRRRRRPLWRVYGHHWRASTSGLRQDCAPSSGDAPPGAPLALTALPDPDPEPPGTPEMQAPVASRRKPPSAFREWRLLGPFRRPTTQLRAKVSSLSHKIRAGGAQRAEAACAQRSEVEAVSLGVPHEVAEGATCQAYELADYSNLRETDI

[19] = biological target: C-C chemokine receptor type 5 (Homo sapiens) (UniProt P51681); assay: Inhibition of Chemokine CCR5 at 10 µM in the Eurofins-Panlabs radioligand binding assay (Eurofins_assay_217720)
Chain of C-C chemokine receptor type 5 (Homo sapiens) (P51681 whole entry, looked up): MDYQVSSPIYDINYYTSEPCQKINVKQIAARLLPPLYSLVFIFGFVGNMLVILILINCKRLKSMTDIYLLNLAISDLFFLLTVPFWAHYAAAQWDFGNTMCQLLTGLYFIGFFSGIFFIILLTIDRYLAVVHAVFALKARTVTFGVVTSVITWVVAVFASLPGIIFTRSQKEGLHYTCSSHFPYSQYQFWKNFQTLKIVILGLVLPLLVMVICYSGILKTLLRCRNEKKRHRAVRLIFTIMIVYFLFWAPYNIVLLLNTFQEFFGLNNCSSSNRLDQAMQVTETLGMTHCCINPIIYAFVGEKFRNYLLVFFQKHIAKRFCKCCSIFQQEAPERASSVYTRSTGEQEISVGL

Measured: inhibition

Chain of Histamine H1 receptor (Homo sapiens) (P35367 whole entry): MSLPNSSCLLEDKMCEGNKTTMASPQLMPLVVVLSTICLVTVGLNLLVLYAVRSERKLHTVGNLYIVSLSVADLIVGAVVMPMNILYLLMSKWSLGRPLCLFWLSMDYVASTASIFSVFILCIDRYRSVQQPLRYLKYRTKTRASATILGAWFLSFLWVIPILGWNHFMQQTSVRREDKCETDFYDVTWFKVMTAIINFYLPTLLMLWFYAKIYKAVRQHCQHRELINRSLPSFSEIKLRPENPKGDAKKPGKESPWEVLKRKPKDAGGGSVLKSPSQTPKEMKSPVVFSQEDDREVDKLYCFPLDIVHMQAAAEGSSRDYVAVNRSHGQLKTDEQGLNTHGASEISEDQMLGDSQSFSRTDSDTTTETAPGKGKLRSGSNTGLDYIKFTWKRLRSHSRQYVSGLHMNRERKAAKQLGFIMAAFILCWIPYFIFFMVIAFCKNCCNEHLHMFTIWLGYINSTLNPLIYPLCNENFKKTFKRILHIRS

O=C(NCc1ncc(C(F)(F)F)cc1Cl)c1ccc2c(c1)C1(CCS(=O)(=O)CC1)[C@@H](C1CC1)N2S(=O)(=O)c1ccc(F)cc1 [BAY-786]
inactive: [1] -8.4%

O=C(NCc1ncc(C(F)(F)F)cc1Cl)c1ccc2c(c1)C1(CCS(=O)(=O)CC1)[C@H](C1CC1)N2S(=O)(=O)c1ccc(F)cc1 [BAY-784]
inactive: [2] 9% | [3] 0% | [4] 12% | [5] 4% | [6] 2% | Homo sapiens 22% | [7] 4% | [8] -1% | [9] -3% | [10] 6% | [11] 6% | [12] 15% | [13] 5% | [14] 1% | [15] 14% | [16] 12% | [17] 34% | [18] 18% | [19] -1%
